Results reported in patent US20150181873A1, “HERBICIDE-RESISTANT SUNFLOWER PLANTS, POLYNUCLEOTIDES ENCODING HERBICIDE=RESISTANT ACETO HYDROXY ACID SYNTHASE LARGE SUBUNIT PROTEINS, AND METHODS OF USE” (NIDERA S.A., priority 2013, published 2015).

Tests used:
Format in all cases: in vivo, Helianthus annuus
[1] = tested on: Clearfield sunflower variety C; assay: Greenhouse spray injury rating, Clearfield variety C; conditions: imazapyr 240 gm ai/ha, scale 0-9
Excerpt: Sunflower lines S4897, Clearfield® sunflower varieties A, B, C and a conventional non-Clearfield variety were sprayed with three rates of imazamox (Raptor™), 100, 200 and 300 gm ai/ha plus 0.5% Sun It II and two rates of imazapyr (Arsenal™) 160 and 360 gm ai/ha plus 0.5% Sun It II when the plants were at the two to three leaf stage. Ratings were taken at 14 days after application (DAT) for injury. Injury was rated on a scale from 0 to 9 where 0=no injury to 9=dead plant. Twelve plants were sprayed per herbicide/rate treatment. Statistical analysis was conducted with STATGRAPHICS Plus 5.0 by using ANOVA and LSD procedures.
After plants were sprayed, it was realized that a height difference between S4897 and other sunflower varieties would have impacted the actual herbicide dose that was delivered. The spray boom height had been calibrated against S4897 and since the other varieties were taller and closer to the boom they would have received a greater dose of herbicide. Rates were recalibrated for the other varieties to determine the approximate dose they would have received. Assessments were made as presented in Table 2 since it was not possible to make a direct rate comparison due to the effect of the height. For example injury scores were compare for S4897 treated imazamox rate 100 gm ai/ha to the other varieties treated at 75 gm ai/ha. The treatment dose of 300 gm ai/ha for line S4897 was equivalent to the treatment of 200 gm ai/ha for the other varieties, which […].

[2] = tested on: sunflower hybrid TH1 (A205V); assay: Greenhouse imazapir dose response, TH1; conditions: 14 DAT
Experimental: (§1) A greenhouse study was conducted to quantify and contrast the imazapir sensivity of the mutants A122T and A205V in different genetic backgrounds at the whole plant level in sunflower. Seeds of the different sunflower lines that were used in this study were obtained under field conditions.
(§2) Seeds were sown in Petri dishes and, after germination, plantlets were transplanted to pots of 10 cm of diameter in a potting media consisting of equal parts of vermiculite, soil and sand. Plants were grown in a greenhouse under natural light conditions supplemented with 400 W sodium halide lamps to provide a 16 hrs daylength. Day/night temperatures were 25 and 20° C., respectively. At the V2 stage 10 plants of each genotype were randomly assigned to each treatment consisting of […] imazapir doses (0, 40, 80, 160, 240, 320, 400 and 480 g ai/ha), and a zero-time biomass determination. Experiment was arranged as a randomized block design with a full factorial (sunflower line×treatment) arrangement of treatments and 10 replications.
(§3) On the day of herbicide application ten plants of each genotype were cut at the cotyledonal node and dried at 60° C. for 48 hrs zero-time for dried weight determination. […] Height was determined as the distance between the cotyledonal node and the apex of each plant. For root biomass determination, each plant was taken from the pot and the potting media was washed out from the roots. Above ground biomass data from each line were converted to biomass accumulation after application by subtracting the appropriate average zero-time biomass from each sample. Dry biomass data were converted to percentages of the untreated control plants within each line to allow direct comparisons between groups.

[3] = tested on: sunflower line IB920 (A205V); assay: Greenhouse imazapir dose response, IB920; conditions: 14 DAT
Experimental: as §1, §2, §3

[4] = tested on: sunflower restorer line IR79 (A205V); assay: Greenhouse imazapir dose response, IR79; conditions: 14 DAT
Experimental: as §1, §2, §3

CC(C)C1(C)N=C(c2ncccc2C(=O)O)NC1=O (centres unmarked) [Imazapyr, imazapyr]
Injury at 14 DAT [1]: 4.9 c | Phytotoxicity Index ([2]; 0.5x (40 g ai/ha)): 0 | biomass accumulation, % of untreated ([2]; 0.5x (40 g ai/ha)): 95.0% | plant height, % of untreated ([2]; 0.5x (40 g ai/ha)): 99.5% | root dry weight, % of untreated ([2]; 0.5x (40 g ai/ha)): 79.4% | Phytotoxicity Index ([2]; 1x (80 g ai/ha)): 0 | biomass accumulation, % of untreated ([2]; 1x (80 g ai/ha)): 89.6% | plant height, % of untreated ([2]; 1x (80 g ai/ha)): 99.5% | root dry weight, % of untreated ([2]; 1x (80 g ai/ha)): 70.7% | Phytotoxicity Index ([2]; 2x (160 g ai/ha)): 1.8 | biomass accumulation, % of untreated ([2]; 2x (160 g ai/ha)): 75.5% | plant height, % of untreated ([2]; 2x (160 g ai/ha)): 78.6% | root dry weight, % of untreated ([2]; 2x (160 g ai/ha)): 69.6% | Phytotoxicity Index ([2]; 3x (240 g ai/ha)): 6.4 | biomass accumulation, % of untreated ([2]; 3x (240 g ai/ha)): 60.4% | plant height, % of untreated ([2]; 3x (240 g ai/ha)): 48.4% | root dry weight, % of untreated ([2]; 3x (240 g ai/ha)): 42.3% | Phytotoxicity Index ([2]; 4x (320 g ai/ha)): 8.0 | biomass accumulation, % of untreated ([2]; 4x (320 g ai/ha)): 46.5% | plant height, % of untreated ([2]; 4x (320 g ai/ha)): 28.9% | root dry weight, % of untreated ([2]; 4x (320 g ai/ha)): 38.6% | Phytotoxicity Index ([2]; 5x (400 g ai/ha)): 8.9 | biomass accumulation, % of untreated ([2]; 5x (400 g ai/ha)): 38.9% | plant height, % of untreated ([2]; 5x (400 g ai/ha)): 25.3% | root dry weight, % of untreated ([2]; 5x (400 g ai/ha)): 34.7% | Phytotoxicity Index ([2]; 6x (480 g ai/ha)): 9.0 | biomass accumulation, % of untreated ([2]; 6x (480 g ai/ha)): 33.9% | plant height, % of untreated ([2]; 6x (480 g ai/ha)): 27.1% | root dry weight, % of untreated ([2]; 6x (480 g ai/ha)): 23.1% | biomass accumulation, % of untreated ([3]; 0.5x (40 g ai/ha)): 93.9% | plant height, % of untreated ([3]; 0.5x (40 g ai/ha)): 96.2% | root dry weight, % of untreated ([3]; 0.5x (40 g ai/ha)): 94.0% | biomass accumulation, % of untreated ([3]; 1x (80 g ai/ha)): 87.9% | plant height, % of untreated ([3]; 1x (80 g ai/ha)): 80.0% | root dry weight, % of untreated ([3]; 1x (80 g ai/ha)): 89.6% | biomass accumulation, % of untreated ([3]; 2x (160 g ai/ha)): 58.8% | plant height, % of untreated ([3]; 2x (160 g ai/ha)): 61.5% | root dry weight, % of untreated ([3]; 2x (160 g ai/ha)): 50.7% | biomass accumulation, % of untreated ([3]; 3x (240 g ai/ha)): 46.4% | plant height, % of untreated ([3]; 3x (240 g ai/ha)): 40.9% | root dry weight, % of untreated ([3]; 3x (240 g ai/ha)): 37.3% | biomass accumulation, % of untreated ([3]; 4x (320 g ai/ha)): 35.5% | plant height, % of untreated ([3]; 4x (320 g ai/ha)): 27.9% | root dry weight, % of untreated ([3]; 4x (320 g ai/ha)): 32.8% | biomass accumulation, % of untreated ([3]; 5x (400 g ai/ha)): 33.9% | plant height, % of untreated ([3]; 5x (400 g ai/ha)): 30.0% | root dry weight, % of untreated ([3]; 5x (400 g ai/ha)): 25.4% | biomass accumulation, % of untreated ([3]; 6x (480 g ai/ha)): 29.4% | plant height, % of untreated ([3]; 6x (480 g ai/ha)): 27.1% | root dry weight, % of untreated ([3]; 6x (480 g ai/ha)): 19.4% | biomass accumulation, % of untreated ([4]; 0.5x (40 g ai/ha)): 94.4% | plant height, % of untreated ([4]; 0.5x (40 g ai/ha)): 92.8% | root dry weight, % of untreated ([4]; 0.5x (40 g ai/ha)): 98.6% | biomass accumulation, % of untreated ([4]; 1x (80 g ai/ha)): 74.0% | plant height, % of untreated ([4]; 1x (80 g ai/ha)): 80.9% | root dry weight, % of untreated ([4]; 1x (80 g ai/ha)): 53.4% | biomass accumulation, % of untreated ([4]; 2x (160 g ai/ha)): 67.7% | plant height, % of untreated ([4]; 2x (160 g ai/ha)): 74.9% | root dry weight, % of untreated ([4]; 2x (160 g ai/ha)): 42.5% | biomass accumulation, % of untreated ([4]; 3x (240 g ai/ha)): 49.1% | plant height, % of untreated ([4]; 3x (240 g ai/ha)): 55.7% | root dry weight, % of untreated ([4]; 3x (240 g ai/ha)): 38.4% | biomass accumulation, % of untreated ([4]; 4x (320 g ai/ha)): 44.5% | plant height, % of untreated ([4]; 4x (320 g ai/ha)): 52.8% | root dry weight, % of untreated ([4]; 4x (320 g ai/ha)): 31.5% | biomass accumulation, % of untreated ([4]; 5x (400 g ai/ha)): 40.1% | plant height, % of untreated ([4]; 5x (400 g ai/ha)): 41.7% | root dry weight, % of untreated ([4]; 5x (400 g ai/ha)): 23.3% | biomass accumulation, % of untreated ([4]; 6x (480 g ai/ha)): 35.3% | plant height, % of untreated ([4]; 6x (480 g ai/ha)): 33.2% | root dry weight, % of untreated ([4]; 6x (480 g ai/ha)): 21.9%
